The values that follow come from ChEMBL document CHEMBL1129899, “Synthesis of CD-ring modified 1,25-dihydroxy vitamin D analogues: Five-membered D-ring analogues” (1997).

SMILES strings stand for the structures.

In assay [1] the target is T1, Vitamin D3 receptor (Homo sapiens) (UniProt P11473).
T1 sequence (whole entry): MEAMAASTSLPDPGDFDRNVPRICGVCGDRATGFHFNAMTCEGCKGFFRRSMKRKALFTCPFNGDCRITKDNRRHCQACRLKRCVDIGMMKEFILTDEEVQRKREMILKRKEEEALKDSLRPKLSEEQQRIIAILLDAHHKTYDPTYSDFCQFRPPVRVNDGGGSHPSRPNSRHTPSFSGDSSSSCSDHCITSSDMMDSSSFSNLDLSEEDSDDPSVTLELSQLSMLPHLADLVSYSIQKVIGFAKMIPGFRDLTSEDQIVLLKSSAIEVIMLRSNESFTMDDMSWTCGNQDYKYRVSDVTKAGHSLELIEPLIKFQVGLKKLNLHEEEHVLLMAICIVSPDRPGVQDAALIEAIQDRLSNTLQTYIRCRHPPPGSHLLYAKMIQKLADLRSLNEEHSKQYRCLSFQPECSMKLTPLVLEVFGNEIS
Description: Relative affinity compared to Calcitriol in displacement of [3H]1H]1-alpha,25(OH)2D3 from vitamin D receptor (VDR) in MG-63 cells. In kind it is functional, cell-based. (In general: In a radioligand displacement assay an active substance lowers the binding of a labelled ligand.)

In assay [2] the test system is Mus musculus. Description: In vivo calcemic effect was tested in vitamin D replete normal […] mice by measuring calcium levels in serum. In kind it is functional. Details: reference not given here.
Assay [3] deals with T1, Vitamin D3 receptor (Homo sapiens). Description: Relative affinity compared to Calcitriol in displacement of [3H]1H]1-alpha,25(OH)2D3 from Vitamin D3 receptor in HL-60 cells. In kind it is functional, cell-based.
Assay [4] has the same target. Description: Relative affinity compared to Calcitriol in displacement of [3H]1H]1-alpha,25(OH)2D3 from vitamin D3 receptor in […] cells. The class given is cell-based.
Assay [5] addresses T2, Vitamin D3 receptor (Sus scrofa) (UniProt A3RGC1).
T2 sequence (whole entry): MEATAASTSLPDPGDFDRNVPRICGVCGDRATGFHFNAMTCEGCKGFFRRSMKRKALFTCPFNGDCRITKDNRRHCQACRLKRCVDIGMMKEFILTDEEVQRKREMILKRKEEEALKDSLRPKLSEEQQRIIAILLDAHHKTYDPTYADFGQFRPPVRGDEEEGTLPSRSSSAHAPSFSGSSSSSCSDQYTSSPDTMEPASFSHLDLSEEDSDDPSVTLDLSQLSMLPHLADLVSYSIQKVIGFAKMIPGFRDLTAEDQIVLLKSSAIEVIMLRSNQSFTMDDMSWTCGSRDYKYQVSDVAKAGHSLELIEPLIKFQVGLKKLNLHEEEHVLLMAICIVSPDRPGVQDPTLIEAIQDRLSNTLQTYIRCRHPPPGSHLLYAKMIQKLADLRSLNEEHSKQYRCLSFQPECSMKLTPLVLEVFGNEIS
Description: Affinity for pig intestinal mucosa Vitamin D3 receptor (VDR). The class given is tissue-based.

For assay [6], the system named is keratinocytes (Homo sapiens). Description: Antiproliferative activity relative to Calcitriol in Keratinocyte cell lines.

With `C=C1/C(=C/C=C/[C@@H]2CC[C@H]([C@@H](C)CC#CC(C)(C)O)C2(C)C)C[C@@H](O)C[C@@H]1O`, the Activity in assay [1] was 10%; in assay [2], 0.5; in assay [3], 100%; in assay [4], 150%; in assay [5], 40; in assay [6] it was 200%.

On to `C=C1/C(=C/C=C/[C@@H]2CC[C@H]([C@H](C)CC#CC(C)(C)O)C2(C)C)C[C@@H](O)C[C@@H]1O`, for which the Activity in assay [2] is 0.25; in assay [3], 100%; in assay [4], 200%; in assay [5] it was 40.

For the molecule `C=C1/C(=C/C=C/[C@@H]2CC[C@H]([C@@H](C)CCCC(C)(C)O)C2(C)C)C[C@@H](O)C[C@@H]1O`, the Activity was 10% in assay [1]; 3 in assay [2]; 100% in assay [3]; 85% in assay [4]; 70 in assay [5]; 100% in assay [6].

Take `C=C1/C(=C/C=C/[C@@H]2CC[C@H]([C@H](C)CCCC(C)(C)O)[C@@]2(C)CCC)C[C@@H](O)C[C@@H]1O`: the Activity is 8% in assay [1]; 1 in assay [2]; 10% in assay [3]; 1% in assay [4]; 80 in assay [5]; 85% in assay [6].

In the case of `C=C1/C(=C/C=C/[C@@H]2CC[C@H]([C@H](C)CCCC(C)(C)O)C2(C)C)C[C@@H](O)C[C@@H]1O`, the Activity is 30% in assay [1]; 0.3 in assay [2]; 85% in assay [3]; 85% in assay [4]; 80 in assay [5]; 90% in assay [6].
